Laboratory results published in ChEMBL document CHEMBL3046894, “Synthesis and Herbicidal Activity of Pyrimidinyl Salicylic and Thiosalicylic Acids” (J Pestic Sci, 1996).
Active and inactive are the calls of the source. The rule behind the calls is not given here.

Key:
Gossypium hirsutum [1] = test: (§1) Post-emergence phytotoxicity against Gossypium hirsutum (cotton) assessed as mortality at 6.3 g a.i/10 a applied 11 days after germination as foliar spray; format: organism-based; conditions: in vivo, other, 264 h
Ipomoea lacunosa [2] = test: Pre-emergence herbicidal activity against Ipomoea lacunosa assessed as mortality at 1.6 g a.i/10 a; format: functional
Ipomoea lacunosa [3] = test: Pre-emergence herbicidal activity against Ipomoea lacunosa assessed as mortality at 6.3 g a.i/10 a; format: functional
Zea mays [4] = test: Post-emergence phytotoxicity against Zea mays (maize) assessed as mortality at 1.6 g a.i/10 a applied 11 days after germination as foliar spray; format: organism-based; conditions: in vivo, other, 264 h
[5] = (§2) Pre-emergence phytotoxicity against Glycine max (soybean) assessed as mortality at 1.6 g a.i/10 a; format: organism-based; conditions: in vivo, 1.6 g a.i/10 a, read-out: Activity
Xanthium strumarium [6] = test: Pre-emergence herbicidal activity against Xanthium strumarium (cocklebur) assessed as mortality at 1.6 g a.i/10 a; format: functional
Zea mays [7] = test: Pre-emergence phytotoxicity against Zea mays (maize) assessed as mortality at 6.3 g a.i/10 a; format: organism-based; conditions: in vivo, other
Glycine max [8] = test: Post-emergence phytotoxicity against Glycine max (soybean) assessed as mortality at 6.3 g a.i/10 a applied 11 days after germination as foliar spray; format: organism-based; conditions: in vivo, other, 264 h
Echinochloa crus-galli [9] = test: Post-emergence herbicidal activity against Echinochloa crus-galli (barnyard grass) assessed as mortality at 6.3 g a.i/10 a applied 11 days after germination as foliar spray; format: functional; conditions: 264 h
Zea mays [10] = test: Pre-emergence phytotoxicity against Zea mays (maize) assessed as mortality at 1.6 g a.i/10 a; format: organism-based; conditions: in vivo, other
Glycine max [11] = test: Post-emergence phytotoxicity against Glycine max (soybean) assessed as mortality at 1.6 g a.i/10 a applied 11 days after germination as foliar spray; format: organism-based; conditions: in vivo, other, 264 h
Gossypium hirsutum [12] = test: Pre-emergence phytotoxicity against Gossypium hirsutum (cotton) assessed as mortality at 1.6 g a.i/10 a; format: organism-based; conditions: in vivo, other
Xanthium strumarium [13] = test: Pre-emergence herbicidal activity against Xanthium strumarium (cocklebur) assessed as mortality at 6.3 g a.i/10 a; format: functional
[14] = (§3) Pre-emergence phytotoxicity against Glycine max (soybean) assessed as mortality at 6.3 g a.i/10 a; format: organism-based; conditions: in vivo, 6.3 g a.i/10 a, read-out: Activity
[15] = Post-emergence phytotoxicity against Gossypium hirsutum (cotton) assessed as mortality at 1.6 g a.i/10 a applied 11 days after germination as foliar spray; format: organism-based; conditions: in vivo, 1.6 g a.i/10 a
[16] = (§4) Pre-emergence phytotoxicity against Gossypium hirsutum (cotton) assessed as mortality at 6.3 g a.i/10 a; format: organism-based; conditions: in vivo, 6.3 g a.i/10 a, read-out: Activity
Chenopodium album [17] = test: Pre-emergence herbicidal activity against Chenopodium album assessed as growth inhibition at 25 g a.i/10 a; format: functional, organism-based
[18] = as §1; format: organism-based; conditions: in vivo, 6.3 g a.i/10 a
Chenopodium album [19] = test: Post-emergence herbicidal activity against Chenopodium album assessed as growth inhibition at 25 g a.i/10 a applied 11 days after germination as foliar spray; format: functional, organism-based
Ipomoea lacunosa [20] = test: Post-emergence herbicidal activity against Ipomoea lacunosa assessed as mortality per 10 acre; format: functional
Gossypium hirsutum [21] = test: Pre-emergence phytotoxicity against Gossypium hirsutum (cotton) assessed as mortality per 10 acre; format: organism-based; conditions: in vivo
Persicaria nodosa [22] = test: Pre-emergence herbicidal activity against Persicaria nodosa assessed as growth inhibition at 25 g a.i/10 a; format: functional, organism-based
Echinochloa crus-galli [23] = test: Post-emergence herbicidal activity against Echinochloa crus-galli (barnyard grass) assessed as growth inhibition at 25 g a.i/10 a applied 11 days after germination as foliar spray; format: functional, organism-based
Ipomoea lacunosa [24] = test: Post-emergence herbicidal activity against Ipomoea lacunosa assessed as mortality at 6.3 g a.i/10 a applied 11 days after germination as foliar spray; format: functional; conditions: 264 h
Echinochloa crus-galli [25] = test: Pre-emergence herbicidal activity against Echinochloa crus-galli (barnyard grass) assessed as mortality per 10 acre; format: functional
Persicaria nodosa [26] = test: Post-emergence herbicidal activity against Persicaria nodosa assessed as mortality per 10 acre; format: functional
Digitaria sanguinalis [27] = test: Post-emergence herbicidal activity against Digitaria sanguinalis (hairy crabgrass) assessed as growth inhibition at 25 g a.i/10 a applied 11 days after germination as foliar spray; format: functional, organism-based
Abutilon theophrasti = test: Post-emergence herbicidal activity against Abutilon theophrasti (velvetleaf) assessed as mortality at 6.3 g a.i/10 a applied 11 days after germination as foliar spray; format: functional; conditions: 264 h
Glycine max [28] = test: as §2; format: organism-based; conditions: in vivo, other
Persicaria nodosa [29] = test: Post-emergence herbicidal activity against Persicaria nodosa assessed as growth inhibition at 25 g a.i/10 a applied 11 days after germination as foliar spray; format: functional, organism-based
Echinochloa crus-galli [30] = test: Pre-emergence herbicidal activity against Echinochloa crus-galli (barnyard grass) assessed as growth inhibition at 25 g a.i/10 a; format: functional, organism-based
Cyperus iria [31] = test: Pre-emergence herbicidal activity against Cyperus iria assessed as growth inhibition at 25 g a.i/10 a; format: functional, organism-based
Gossypium hirsutum [32] = test: Post-emergence phytotoxicity against Gossypium hirsutum (cotton) assessed as mortality per 10 acre; format: organism-based; conditions: in vivo
Amaranthus retroflexus [33] = test: Post-emergence herbicidal activity against Amaranthus retroflexus assessed as growth inhibition at 25 g a.i/10 a applied 11 days after germination as foliar spray; format: functional, organism-based
Persicaria nodosa [34] = test: Pre-emergence herbicidal activity against Persicaria nodosa assessed as mortality per 10 acre; format: functional
Xanthium strumarium [35] = test: Pre-emergence herbicidal activity against Xanthium strumarium (cocklebur) assessed as mortality per 10 acre; format: functional
Amaranthus retroflexus [36] = test: Pre-emergence herbicidal activity against Amaranthus retroflexus assessed as mortality per 10 acre; format: functional
Digitaria sanguinalis [37] = test: Pre-emergence herbicidal activity against Digitaria sanguinalis (hairy crabgrass) assessed as growth inhibition at 25 g a.i/10 a; format: functional, organism-based
Amaranthus retroflexus [38] = test: Post-emergence herbicidal activity against Amaranthus retroflexus assessed as mortality per 10 acre; format: functional
Glycine max [39] = test: as §3; format: organism-based; conditions: in vivo, other
Ipomoea lacunosa [40] = test: Pre-emergence herbicidal activity against Ipomoea lacunosa assessed as mortality per 10 acre; format: functional
Cyperus iria [41] = test: Post-emergence herbicidal activity against Cyperus iria assessed as growth inhibition at 25 g a.i/10 a applied 11 days after germination as foliar spray; format: functional, organism-based
Echinochloa crus-galli [42] = test: Post-emergence herbicidal activity against Echinochloa crus-galli (barnyard grass) assessed as mortality per 10 acre; format: functional
Amaranthus retroflexus [43] = test: Pre-emergence herbicidal activity against Amaranthus retroflexus assessed as growth inhibition at 25 g a.i/10 a; format: functional, organism-based
Xanthium strumarium [44] = test: Post-emergence herbicidal activity against Xanthium strumarium (cocklebur) assessed as mortality per 10 acre; format: functional
Gossypium hirsutum [45] = test: as §4; format: organism-based; conditions: in vivo, other

Structure (SMILES) | Activity (Ipomoea lacunosa [2]) | Activity (Ipomoea lacunosa [3]) | Activity (Zea mays [4]) | Activity (Xanthium strumarium [6]) | Activity (Zea mays [7]) | Activity (Glycine max [8]) | Activity (Zea mays [10]) | Activity (Glycine max [11]) | Activity (Gossypium hirsutum [12]) | mortality at 264 h [15] | mortality [16] | mortality at 264 h [18] | ED90 (Ipomoea lacunosa [20]) | ED20 (Gossypium hirsutum [21]) | ED90 (Echinochloa crus-galli [25]) | ED90 (Persicaria nodosa [26]) | mortality at 63 g/ha (Abutilon theophrasti) | Activity (Glycine max [28]) | ED20 (Gossypium hirsutum [32]) | ED90 (Persicaria nodosa [34]) | also measured
COc1cc(OC)nc(Sc2cccc(C(C)=O)c2C(=O)O)n1 | <50% | <50% | Toxic | <50% | Toxic | Non-toxic | Non-toxic | Non-toxic | < 50% | < 5% | < 50% | – | – | – | – | – | – | – | – | – | Activity (Gossypium hirsutum [1]): Non-toxic; mortality [5]: < 50%; mortality at 63 g/ha (Echinochloa crus-galli [9]): > 90%; Activity (Xanthium strumarium [13]): <50%; mortality [14]: < 50%
COc1cc(OC)nc(Sc2cccc(Cl)c2C(=O)O)n1 [PYRITHIOBAC] | <50% | <50% | Toxic | <50% | Toxic | – | Toxic | Toxic | < 50% | < 5% | < 50% | < 5% | inactive | 50 gAi | 25 gAi | 1.5 gAi | > 90% | Non-toxic | 50 gAi | inactive | growth inhibition (GI) (Chenopodium album [17]): Active; growth inhibition (GI) (Chenopodium album [19]): Active; growth inhibition (GI) (Persicaria nodosa [22]): Active; growth inhibition (GI) (Echinochloa crus-galli [23]): Active; mortality at 63 g/ha (Ipomoea lacunosa [24]): > 90%; growth inhibition (GI) (Digitaria sanguinalis [27]): Active; growth inhibition (GI) (Persicaria nodosa [29]): Active; growth inhibition (GI) (Echinochloa crus-galli [30]): Active; growth inhibition (GI) (Cyperus iria [31]): Active; growth inhibition (GI) (Amaranthus retroflexus [33]): Active; ED90 (Xanthium strumarium [35]): 25 gAi; ED90 (Amaranthus retroflexus [36]): 1.5 gAi; growth inhibition (GI) (Digitaria sanguinalis [37]): Active; ED90 (Amaranthus retroflexus [38]): 1.5 gAi; Activity (Glycine max [39]): Non-toxic; ED90 (Ipomoea lacunosa [40]): 25 gAi; growth inhibition (GI) (Cyperus iria [41]): Active; ED90 (Echinochloa crus-galli [42]): 25 gAi; growth inhibition (GI) (Amaranthus retroflexus [43]): Active; ED90 (Xanthium strumarium [44]): Active
COc1cc(OC)nc(Sc2cccc(Br)c2C(=O)O)n1 | – | – | Toxic | – | Toxic | Toxic | Toxic | Toxic | < 50% | < 5% | – | < 5% | Active | 50 gAi | 25 gAi | 1.5 gAi | > 90% | Toxic | 50 gAi | inactive | ED90 (Xanthium strumarium [35]): 25 gAi; ED90 (Amaranthus retroflexus [36]): 1.5 gAi; ED90 (Amaranthus retroflexus [38]): 1.5 gAi; Activity (Glycine max [39]): Toxic; ED90 (Ipomoea lacunosa [40]): 25 gAi; ED90 (Echinochloa crus-galli [42]): 25 gAi; Activity (Gossypium hirsutum [45]): Non-toxic; ED90 (Xanthium strumarium [44]): Active
